Measurements reported in article PMC10104254, “Development of a novel angiotensin converting enzyme 2 stimulator with broad implications in SARS-CoV2 and type 1 diabetes” (Research Square, 2023).
Peptide text beside a SMILES is read from it.

Assays:
SARS-CoV-2 = format: cell-based; conditions: 350 μM, pre-treated apically and basolaterally 1 h, then added every 12 h for 48 h; MOI 3; n=3 donors; versus PBS
rhACE2 [1] = target: T1, rhACE2 (Homo sapiens, UniProt Q9BYF1); design: method as in PMID 26931059; conditions: 20 amino acid peptide from Bothrops asper myotoxin; cited from earlier work
T1 construct: purchased R&D systems
T1 sequence (Q9BYF1 18-805): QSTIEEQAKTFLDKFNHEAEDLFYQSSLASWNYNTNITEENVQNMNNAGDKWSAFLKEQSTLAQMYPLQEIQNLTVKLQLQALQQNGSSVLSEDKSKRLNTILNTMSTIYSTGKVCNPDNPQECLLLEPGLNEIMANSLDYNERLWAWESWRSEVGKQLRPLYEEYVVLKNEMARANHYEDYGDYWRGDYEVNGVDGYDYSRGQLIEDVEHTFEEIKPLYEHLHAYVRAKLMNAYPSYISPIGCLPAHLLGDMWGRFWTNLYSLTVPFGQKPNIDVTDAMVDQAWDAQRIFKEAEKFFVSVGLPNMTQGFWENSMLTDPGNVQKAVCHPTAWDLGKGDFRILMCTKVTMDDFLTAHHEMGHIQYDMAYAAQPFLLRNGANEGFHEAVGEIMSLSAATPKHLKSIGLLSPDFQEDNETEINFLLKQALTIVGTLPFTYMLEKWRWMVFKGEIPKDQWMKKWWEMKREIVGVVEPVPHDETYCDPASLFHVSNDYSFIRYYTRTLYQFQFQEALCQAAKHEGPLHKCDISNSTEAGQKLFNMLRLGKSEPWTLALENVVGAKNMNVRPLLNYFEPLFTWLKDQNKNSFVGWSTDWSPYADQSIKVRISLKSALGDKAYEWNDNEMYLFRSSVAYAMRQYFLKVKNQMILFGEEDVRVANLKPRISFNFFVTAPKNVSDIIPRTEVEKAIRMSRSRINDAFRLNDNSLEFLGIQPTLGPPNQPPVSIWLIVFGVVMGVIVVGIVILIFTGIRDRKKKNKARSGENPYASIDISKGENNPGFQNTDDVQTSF

rhACE2 [2] = target: T1, rhACE2; test: ACE2-dependent breakdown of angiotensin II and formation of angiotensin 1-7 by LCMS; format: biochemical; conditions: 2A 1.7 μM, n=4
Protocol: The effect of 2A on ACE2-mediated cleavage of angiotensin II was assessed using LCMS. rhACE2 (0.1 ng/μL) was incubated with 2A (1.7 μM) for 1 h at 37 °C. Angiotensin II (0.02 μg/μL) was then added. Aliquots of equal volumes were collected at T = 0, 3, 6 and 24-h. Aliquots were immediately acidified with trifluoroacetic acid (0.1% final). Samples were snap frozen in dry ice and lyophilized for analysis by LCMS.
Prior to loading, samples were reconstituted in 100 μL loading buffer. Samples were analysed using a quadrupole TOF mass spectrometer (MicroTOFq, Bruker Daltonics, Bremen, Germany) coupled online with a 1200 series nano HPLC (Agilent Technologies). Samples were loaded onto a zorbax 300SB reversed-phase trap column equilibrated with 95% buffer A (0.1% formic acid). The flow rate was set to 10 μL/min. The components were eluted over a 10 min gradient to 70% buffer B (80% acetonitrile, 0.1% formic acid) and peptides were separated on zorbax 300SB-C18 nano column (75 μm × 15 cm, 3.5 μm). The eluant was nebulised and ionised using the Bruker nano-ESI source with a capillary voltage of 4500 V, dry gas at 180° C, flow rate set at […] and nebuliser gas pressure at 300 mbar. The mass spectrometry acquisition was in selected ion monitoring mode after selected ion extraction of the mass spectrometry spectra. […]

[3] = Pharmacokinetics and tissue distribution of 2A in normal mice; conditions: LC-MS/MS
Protocol: Wild-type C57BL/6J mice (male, 10–12 weeks old) were purchased from the Animal Resources Centre (Western Australia, Australia). All animals were housed within the University of Queensland Biological Resources animal facility in a pathogen-free environment with a 12 h dark/12 h light cycle and free access to food and water.
The pharmacokinetic (PK) profile and biodistribution of 2A peptide was assessed in mice (n=5; per route at a dose of 1 mg/kg) after intravenous (i.v; tail vein), subcutaneous (s.c; between the shoulders) and intranasal (i.n; 10μl in each nostril with total volume of 20μl) administration. Blood samples were collected at 10, 20, 30, 45, 60 mins, 2 h and 4 h after drug administration via the tail vein using a microsampling technique[27]. At the terminal time point (24 h post administration), animals were anaesthetised with zolazepam (50 mg/kg) and xylazine (12 mg/kg) via i.p. injection. Blood samples were then collected via cardiac puncture as well as tail bleed to validate the sampling protocol. Plasma was isolated from blood samples by centrifugation (2000 g for 10 min at 4 °C), and stored at −80 °C. Following blood collection at the termination time point, mice were immediately perfused transcardially with saline to remove blood from tissues. Harvested tissue samples were then weighed and homogenized in an equal weight volume of milliQ water. On the day of analysis, aliquots (5 μL) of thawed plasma samples and 100μL of tissue homogenates were mixed with internal standard (10 μL) and processed for peptide quantification using a semi-validated LC–MS/MS method as described previously[28].
Quantification of 2A peptide was performed using AcF-[OPdChaWR] peptide as an internal standard as described previously[28]. […] Concentrations of 2A peptide in samples was measured against known concentration of internal standard and peak area ratio of analyte to internal standard. […]

[4] = Streptozotocin (STZ) model of type 1 diabetes in mice; format: in vivo, C57Bl/6J mice
Protocol: Streptozotocin (STZ; 150 mg/kg; i.p) was used to induce type 1 diabetes in male C57BI/6J mice. Blood glucose was measured 1 week post STZ injection to confirm the presence of diabetes (BG levels > 15 mmol/L at 1 week post STZ injection was included in this study). After establishment of diabetes (T0), mice were randomly allocated to receive 2A (1 mg/kg/ day; 10% DMSO in saline) or vehicle (10% DMSO in saline) via subcutaneous minipumps for a period 3 months. Non fasting blood glucose levels were measured every 2 weeks until study end (T3), and body weight was measured daily, until study end. 24-h urine samples were collected at 1 month intervals since commencement of 2A or its vehicle. (Detailed Methods section is provided at the end of the Discussion).
Streptozotocin (STZ) is a widely used model of type I diabetes which closely mimic the human disease[31],[32]. Male C57Bl/6J mice were purchased from Animal Resources Centre (Western Australia, Australia) and these mice were acclimatized for at least one week prior to inducing diabetes. […] Mouse body weight was measured daily. Blood glucose levels were measured via tail bleed 1-week post-STZ injection to confirm the establishment of diabetes (CareSens N; iSENS, Seoul, Korea). […] Blood glucose levels were measured every 2 weeks until the end of the treatment period. […]

[5] = Stability of 2A in cell culture (HEK293), LCMS; format: in vitro ADME; conditions: peptide 9 μM, 60 min; for remaining at 1 h, 9 μM: human, HEK293 cells in culture, HEK293 cells 20,000 cells/well, Opti-MEM reduced serum media, mean ± SEM, read-out: amount remaining in the medium of HEK293 cells at T60 min compared with T0 min
Protocol: HEK293 (passage 24) were seeded into tissue-culture-grade 96-well plates at a density of 20,000 cells/well. After 24 h, cells were washed with PBS and replaced with Opti-MEM reduced serum media containing amidated or non-amidated 2A (9 μM). Aliquots of equal volume were taken at T = 0 and 60 min. Amidated 2A was added to control wells having media (no cells) only. Samples were immediately acidified in 0.1% TFA, snap frozen in dry ice and stored in −80 °C until analyzed by LCMS.
Samples were analyzed by LC-MS/MS on a Shimadzu Nexera uHPLC (Japan) coupled to a Triple Tof 5600 mass spectrometer (ABSCIEX, Canada) equipped with a duo electrospray ion source. One μl of each extract was injected onto a 2.1 mm × 100 mm Zorbax C18 1.8um column (Agilent) at 200 μL/min. Linear gradients of 1–50% solvent B over 7 min at 200 μL/min flow rate, followed by a steeper gradient from 50% to 98% solvent B in 1 min were used for peptide elution. Solvent B was held at 98% for 3 min for washing the column and returned to 1% solvent B for equilibration prior to the next sample injection. Solvent A consisted of 0.1% formic acid (aq) and solvent B contained 90/10 acetonitrile/ 0.1% formic acid (aq). The ionspray voltage was set to 5500 V, declustering potential (DP) 100 V, curtain gas flow 25, nebuliser gas 1 (GS1) 50, GS2 to 60, interface heater at 150 °C and the turbo heater to 500 °C. The mass spectrometer acquired 500ms full scan high resolution, at 30,000 resolving power, TOF-MS data over the mass range […].
Both amidated and non amidated 2A were quantified using the [M+2H]^2+ doubly charged molecular ion from m/z 575.32 to 575.37.
The data was acquired using Analyst TF 1.6 and quantification was carried out using MultiQuant 2.1.1 software (ABSCIEX, Canada).

N=C(N)c1ccc(/N=N/Nc2ccc(C(=N)N)cc2)cc1 [DIZE, diminazene]
viral titres produced by epithelial cells at 48 hours post-infection (SARS-CoV-2): not significantly different

20 amino acid peptide: synthetic peptide corresponding to the first 20 amino acids of Bothrops asper myotoxin II
effect on recombinant human ACE2 enzyme activity (rhACE2 [1]): stimulates recombinant human ACE2 enzyme activity

CC[C@H](C)[C@H](NC(=O)[C@H](CCSC)NC(=O)[C@H](CCCCN)NC(=O)CNC(=O)[C@H](CC(C)C)NC(=O)[C@H](CCC(=O)O)NC(=O)[C@H](Cc1ccccc1)NC(=O)[C@H](CC(C)C)NC(=O)[C@@H](N)CO)C(=O)N[C@@H](CC(C)C)C(N)=O [2A] (H-SLFELGKMIL-NH2)
increase of Ang 1-7 levels in the presence of ACE2 + 2A compared to ACE2 alone (rhACE2 [2]): 165 ± 12%
reduction of Ang II levels in the presence of ACE2 + 2A (rhACE2 [2]; over a 24-h period, ACE2 alone 58 ± 4%): 83 ± 5%
detection in plasma 24 h post administration ([3]; 1 mg/kg i.v., s.c. or i.n., C57BL/6J mice, n=5 per route): a small amount of peptide was still detected
clearance from the circulation ([3]; 1 mg/kg i.v., s.c. or i.n., C57BL/6J mice, plasma, n=5 per route): rapidly cleared from the circulation over the first 4h
tissue distribution 24-h post administration (heart, lung, spleen, kidney, brain and spinal cord) ([3]; 1 mg/kg, irrespective of the route (i.v., s.c., i.n.), tissue homogenates): detectable at low concentrations
effects on organ weight ([4]; 2A 1 mg/kg/day, 3 months): minimal effects
untoward effects in animal models ([4]; pre-clinical animal models of this paper): did not observe any untoward effects
remaining at 1 h, 9 μM [5]: 54 ± 4%
amount remaining in the cell culture medium in the absence of cells at T60 min ([5]; media only (no cells), Opti-MEM, possible adherence to plastic): 63 ± 14%

CC[C@H](C)[C@H](NC(=O)[C@H](CCSC)NC(=O)[C@H](CCCCN)NC(=O)CNC(=O)[C@H](CC(C)C)NC(=O)[C@H](CCC(=O)O)NC(=O)[C@H](Cc1ccccc1)NC(=O)[C@H](CC(C)C)NC(=O)[C@@H](N)CO)C(=O)N[C@@H](CC(C)C)C(=O)O [non-amidated 2A] (H-SLFELGKMIL-OH; N-terminus assumed)
remaining at 1 h, 9 μM [5]: 29 ± 3%
